Laboratory results: patent publication US20200339511A1, “Substituted indoline derivatives as dengue viral replication inhibitors” (priority 2016, published 2020)

What was measured:
DENV-2 16681 strain = assay: DENV-2 antiviral assay (eGFP-labeled virus in Vero cells); format: cell-based, Dengue virus; settings: DENV-2 16681 eGFP, MOI 0.5, 3 days
Protocol: The antiviral activity of all the compounds of the invention was tested the against DENV-2 16681 strain which was labeled with enhanced green fluorescent protein (eGPF). The culture medium consists of minimal essential medium supplemented with 2% of heat-inactivated fetal calf serum, 0.04% gentamycin (50 mg/mL) and 2 mM of L-glutamine. Vero cells, obtained from ECACC, were suspended in culture medium and 25 μL was added to 384-well plates (2500 cells/well), which already contain the antiviral compounds. Typically, these plates contain a 5-fold serial dilution of 9 dilution steps of the test compound at 200 times the final concentration in 100% DMSO (200 nL). […] Finally, each plate contains wells which are assigned as virus controls (containing cells and virus in the absence of compound), cell controls (containing cells in the absence of virus and compound) and medium controls (containing medium in the absence of cells, virus and compounds). To the wells assigned as medium control, 25 μL of culture medium was added instead of Vero cells. Once the cells were added to the plates, the plates were incubated for 30 minutes at room temperature to allow the cells to distribute evenly within the wells. Next, the plates were incubated in a fully humidified incubator (37° C., 5% CO2) until the next day. Then, DENV-2 strain 16681, labeled with eGFP, was added at a multiplicity of infection (MOI) of 0.5. Therefore, 15 μL of virus suspension was added to all the wells containing test compound and to the wells assigned as virus control. In parallel, 15 μL of culture medium was added to the medium and cell controls. Next, the plates were incubated for 3 days in a fully humidified incubator (37° C., 5% CO2). At the day of the read out, the eGFP fluorescence was measured using an automated fluorescence microscope at 488 nm (blue laser). Using an in-house LIMS system, inhibition dose response curves for each compound were calculated and the half maximal effective concentration (EC50) was determined. Therefore, the percent inhibition (I) for every test concentration is calculated using the following formula: I=100*(ST-SCC)/(SVC-SCC), ST, SCC and SVC are the amount of eGFP signal in the test compound, cell control and virus control wells, respectively. The EC50 represents the concentration of a compound at which the virus replication is inhibited with 50%, as measured by a 50% reduction of the eGFP fluorescent intensity compared to the virus control. The EC50 is calculated using linear interpolation (Table 1).

in vitro [1] = settings: African green monkey
DENV-3 strain H87 = assay: Tetravalent RT-qPCR assay, serotype 3; format: cell-based, Dengue virus; settings: Dengue virus, DENV3, Vero, 72 h, RT-qPCR serotype 3 H87, Protocol A, Vero cells, day 3
Protocol: (§1) Tetravalent reverse transcriptase quantitative-PCR (RT-qPCR) assay The antiviral activity of the compounds of the invention was tested against DENV-1 strain TC974#666 (NCPV), DENV-2 strain 16681, DENV-3 strain H87 (NCPV) and DENV-4 strain H241 (NCPV) in a RT-qPCR assay. Therefore, Vero cells were infected with either DENV-1, or -2, or -3, or -4 in the presence or absence of test compounds. At day 3 post-infection, the cells were lysed and cell lysates were used to prepare cDNA of both a viral target (the 3′UTR of DENV; Table 2) and a cellular reference gene (β-actin, Table 2). Subsequently, a duplex real time PCR was performed on a Lightcycler480 instrument. The generated Cp value is inversely proportional to the amount of RNA expression of these targets. Inhibition of DENV replication by a test compound results in a shift of Cp's for the 3′UTR gene. On the other hand, if a test compound is toxic to the cells, a similar effect on β-actin expression will be observed. The comparative ΔΔCp method is used to calculate EC50, which is based on the relative gene expression of the target gene (3′UTR) normalized with the cellular housekeeping gene (β-actin). In addition, CC50 values are determined based on the Cp values acquired for the housekeeping gene β-actin.
(§2) The culture medium consisted of minimal essential medium supplemented with 2% of heat-inactivated fetal calf serum, 0.04% gentamycin (50mg/mL) and 2 mM of L-glutamine. Vero cells, obtained from ECACC, were suspended in culture medium and 75 μL/well was added in 96-well plates (10000 cells/well), which already contain the antiviral compounds. […] In addition, each plate contains wells which are assigned as virus controls (containing cells and virus in the absence of compound) and cell controls (containing cells in the absence of virus and compound). Once the cells were added in the plates, the plates were incubated in a fully humidified incubator (37° C., 5% CO2) until the next day. Dengue viruses serotype-1, 2, 3 and 4 were diluted in order to obtain a Cp of ˜22-24 in the assay. Therefore, 25 μL of virus suspension was added to all the wells containing test compound and to the wells assigned as virus control. In parallel, 25 μL of culture medium was added to the cell controls. Next, the plates were incubated for 3 days in a fully humidified incubator (37° C., 5% CO2). After 3 days, the supernatant was removed from the wells and the cells were washed twice with ice-cold PBS (˜100 μL). The cell pellets within the 96-well plates were stored at −80° C. for at least 1 day. Next, RNA was extracted using the Cells-to-CT™ lysis kit, according to the manufacturer's guideline (Life Technologies). The cell lysates can be stored at −80° C. or immediately used in the reverse transcription step.
(§3) In preparation of the reverse transcription step, mix A (table 3A) was prepared and 7.57 μL/well was dispensed in a 96-well plate. After addition of 5 μL of the cell lysates, a five minute denaturation step at 75° C. was performed (table 3B). Afterwards, 7.43 μL of mix B was added (table 3C) and the reverse transcription step was initiated (table 3D) to generate cDNA.
(§4) Finally, a RT-qPCR mix was prepared, mix C (table 4A), and 22.02 μL/well was dispensed in 96-well LightCycler qPCR plates to which 3μL of cDNA was added and the qPCR was performed according to the conditions in table 4B on a LightCycler 480.
(§5) Using the LightCycler software and an in-house LIMS system, dose response curves for each compound were calculated and the half maximal effective concentration (EC50) and the half maximal cytotoxic concentration (CC50) were determined (Tables 5-8).

DENV-1 strain TC974#666 = assay: Tetravalent RT-qPCR assay, serotype 1; format: cell-based, Dengue virus; settings: Dengue virus, DENV1, Vero, 72 h, RT-qPCR serotype 1 TC974#666, Protocol A, Vero cells, day 3
Protocol: as §1, §2, §3, §4, §5

DENV-4 strain H241 = assay: Tetravalent RT-qPCR assay, serotype 4; format: cell-based, Dengue virus; settings: Dengue virus, DENV4, Vero, 72 h, RT-qPCR serotype 4 H241, Protocol A, Vero cells, day 3; read-out: EC50
Protocol: as §1, §2, §3, §4, §5

Vero cells = settings: African green monkey
DENV-2 strain 16681 = assay: Tetravalent RT-qPCR assay, serotype 2; format: cell-based, Dengue virus; settings: Dengue virus, DENV2, Vero, 72 h, RT-qPCR serotype 2 16681, Protocol A, Vero cells, day 3
Protocol: as §1, §2, §3, §4, §5

in vitro [2] = format: cell-based; settings: African green monkey
Protocol: as §1, §2, §5

[3] = Dengue virus, DENV2, Vero, 72 h

| Compound | melting point [°C] | EC50 (DENV-2 16681 strain; [3]) [nM] | CC50 (in vitro [1]) [nM] | EC50 (DENV-3 strain H87) [nM] | EC50 (DENV-1 strain TC974#666) [nM] | EC50 (DENV-2 16681 strain) [nM] | EC50 (DENV-4 strain H241) [nM] | CC50 (Vero cells) [nM] | EC50 (DENV-2 strain 16681) [nM] | CC50 at 3 days (in vitro [2]) [nM] |
| --- | --- | --- | --- | --- | --- | --- | --- | --- | --- | --- |
| COc1cc(NC(C(=O)N2CCc3ccc(C(F)(F)F)cc32)c2ccc(Cl)cc2OC)cc(OCCO)c1 (racemic) [Compound 1, 2-(4-chloro-2-methoxyphenyl)-2-((3-(2-hydroxyethoxy)-5-methoxyphenyl)amino)-1-(6-(trifluoromethyl)indolin-1-yl)ethanone] | 194 | 5.6 | 13000 |  |  |  |  |  |  |  |
| COc1cc(NC(C(=O)N2CCc3ccc(OC(F)(F)F)cc32)c2ccc(Cl)cc2)cc(OCCO)c1 (racemic) [Compound 3, 2-(4-chlorophenyl)-2-((3-(2-hydroxyethoxy)-5-methoxyphenyl)amino)-1-(6-(trifluoromethoxy)indolin-1-yl)ethanone] | 162 | 5.5 | 9500 |  |  |  |  |  |  |  |
| COc1cc(NC(C(=O)N2CCc3ccc(C(F)(F)F)cc32)c2ccc(Cl)cc2)cc(OCCO)c1 (racemic) [Compound 4, 2-(4-chlorophenyl)-2-((3-(2-hydroxyethoxy)-5-methoxyphenyl)amino)-1-(6-(trifluoromethyl)indolin-1-yl)ethanone] | 160 | 6.7 | 9700 |  |  |  |  |  |  |  |
| COc1cc(NC(C(=O)N2CCc3ccc(OC(F)(F)F)cc32)c2ccc(Cl)cc2OC)cc(OCCO)c1 (racemic) [Compound 5, 2-(4-chloro-2-methoxyphenyl)-2-((3-(2-hydroxyethoxy)-5-methoxyphenyl)amino)-1-(6-(trifluoromethoxy)indolin-1-yl)ethanone] | 162 | 4.6 | 9300 |  |  |  |  |  |  |  |
| COc1cc(NC(C(=O)N2CCc3cc(OC)c(C(F)(F)F)cc32)c2ccc(Cl)cc2OC)cc(OCCO)c1 (racemic) [Compound 11, 2-(4-chloro-2-methoxyphenyl)-2-((3-(2-hydroxyethoxy)-5-methoxyphenyl)amino)-1-(5-methoxy-6-(trifluoromethyl)indolin-1-yl)ethanone] | 175 | 2.3 | 22000 |  |  |  |  |  |  |  |
| COc1cc(NC(C(=O)N2CCc3cc(F)c(C(F)(F)F)cc32)c2ccc(Cl)cc2)cc(OCCO)c1 (racemic) [Compound 12, 2-(4-chlorophenyl)-1-(5-fluoro-6-(trifluoromethyl)indolin-1-yl)-2-((3-(2-hydroxyethoxy)-5-methoxyphenyl)amino)ethanone] | 130 | 11 | 11000 |  |  |  |  |  |  |  |
| COc1cc(NC(C(=O)N2CCc3cc(OC)c(OC(F)(F)F)cc32)c2ccc(Cl)cc2)cc(OCCO)c1 (racemic) [Compound 13, 2-(4-chlorophenyl)-2-((3-(2-hydroxyethoxy)-5-methoxyphenyl)amino)-1-(5-methoxy-6-(trifluoromethoxy)indolin-1-yl)ethanone] | 165 | 4.9 | 13000 |  |  |  |  |  |  |  |
| COc1cc(NC(C(=O)N2CCc3ccc(C(F)(F)F)cc32)c2ccc(Cl)cc2F)cc(OCCO)c1 (single isomer, unassigned) [Compound 2B, 2-(4-chloro-2-fluorophenyl)-2-((3-(2-hydroxyethoxy)-5-methoxyphenyl)amino)-1-(6-(trifluoromethyl)indolin-1-yl)ethanone] |  |  |  | 29 | 2.4 | 2.5 | 170 | 13000 | 3.2 | 4800 |
| COc1cc(NC(C(=O)N2CCc3ccc(OC(F)(F)F)cc32)c2ccc(Cl)cc2OC)cc(OCCO)c1 (single isomer, unassigned) [Compound 5A, 2-(4-chloro-2-methoxyphenyl)-2-((3-(2-hydroxyethoxy)-5-methoxyphenyl)amino)-1-(6-(trifluoromethoxy)indolin-1-yl)ethanone] |  |  | 9800 | 20 | 2.6 | 1.4 | 210 |  | 3 | 4700 |
| COc1cc(NC(C(=O)N2CCc3ccc(OC(F)(F)F)cc32)c2ccc(Cl)cc2F)cc(OCCO)c1 (single isomer, unassigned) [Compound 6B, 2-(4-chloro-2-fluorophenyl)-2-((3-(2-hydroxyethoxy)-5-methoxyphenyl)amino)-1-(6-(trifluoromethoxy)indolin-1-yl)ethanone] |  |  |  | 28 | 3.1 | 2.5 | 140 | 12000 | 2 | 4800 |
| COc1cc(NC(C(=O)N2CCc3cc(OC)c(C(F)(F)F)cc32)c2ccc(Cl)cc2OC)cc(OCCO)c1 (single isomer, unassigned) [Compound 11B, 2-(4-chloro-2-methoxyphenyl)-2-((3-(2-hydroxyethoxy)-5-methoxyphenyl)amino)-1-(5-methoxy-6-(trifluoromethyl)indolin-1-yl)ethanone] |  |  |  | 34 | 7.8 | 1.6 | 280 | > 25000 | 2 |  |
